Patent publication US11096985B2, “Antimicrobial peptides, their variants and uses” (priority 2015, dated 2021)
Where a SMILES comes first, the peptide text is derived from it. [ ]: non-standard residue; d: D form.

What was measured:
[1] = test system: clinical strains of Candida albicans; experiment: MIC, clinical yeast strains, Candida albicans; type: cell-based; design: unit: μg/ml
How it was run: (§1)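 MIC = lowest peptide concentration showing no visual growth after 20–24 h at 37° C. Range 0.125–128 μg/ml; bacteria at 5.0×10^5 cfu/ml in MH broth, polypropylene microdilution format; yeasts in potato dextrose broth.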

[2] = test system: clinical strains of Pseudomonas aeruginosa; experiment: MIC, clinical strains of P. aeruginosa; type: cell-based; design: unit: μg/ml; conditions: microdilution, Muller Hinton broth-cation adjusted, 0.02% BSA, 0.2% acetic acid
How it was run: as §1

[3] = test system: clinical strains of Klebsiella pneumoniae; experiment: MIC, clinical strains of K. pneumoniae; type: cell-based; design: unit: μg/ml; conditions: microdilution, Muller Hinton broth-cation adjusted, 0.02% BSA, 0.2% acetic acid
How it was run: as §1

[4] = test system: clinical strains of Staphylococcus aureus; experiment: MIC, clinical strains of S. aureus; type: cell-based; design: unit: μg/ml; conditions: microdilution, Muller Hinton broth-cation adjusted, 0.02% BSA, 0.2% acetic acid
How it was run: as §1

[5] = test system: clinical strains of Acinetobacter baumannii; experiment: MIC, clinical strains of Acinetobacter baumannii; type: cell-based; conditions: microdilution, Muller Hinton broth-cation adjusted, 0.02% BSA, 0.2% acetic acid
Method: Minimum inhibition concentrations (MICs) were determined against Escherichia coli (ATCC 25922), Staphylococcus aureus (ATCC 25923), Klebsiella pneumoniae (ATCC 10031) and Pseudomonas aeruginosa (ATCC 27853). Also clinical strains of E. coli, K. pneumoniae, E. cloacae, P. aeruginosa, Serratia marcescens, Proteus mirabilis, S. pneumoniae, Acinetobacter baumannii, A. johnsonii and S. aureus were used for MICs assays. Additionally, clinical strains of yeast including Candida albicans, C. glabrata, C. parapsilosis and C. quillermondiae were used. The susceptibility of these microorganisms to Chain peptides were determined using micro broth dilution assay. Colonies of the respective microorganism from Muller Hinton (MH) agar plates incubated overnight were suspended in MH broth media and final concentration of microorganism was adjusted to 5.0×10^5 cfu/ml. An aliquot of 10 μl of each Chain peptide, or gentamicin, tetracycline as reference antibiotics were added in differing concentrations along with 90 μl of bacterial suspension to 96 well polypropylene plates and incubated at 37° C. for 20 to 24 hours. Concentrations of Chain peptides and reference antibiotics ranged from 0.125 to 128 μg/ml and the MICs were recorded as the lowest concentration with no visual growth of bacteria. Similarly, antifungal MICs were tested in Potato dextrose broth.
Clinical strains of yeasts including Candida albicans, C. glabrata, C. parapsilosis and C. quillermondiae were also tested with the 12 Chain peptides. The minimum inhibitory concentration (MICs) varied between these peptides and are presented in Tables 4a, 4b, 4c and 5a, 5b, 5c. Peptides Chain 105, 201 and 308 are broad spectrum antimicrobials with MICs between 0.5-32 μg/ml against all the bacteria and yeasts tested, except Serratia marcescens and Proteus mirabilis, against which the MICs were between 64-128 μg/ml. Peptide Chain 306 has narrow spectrum activity against E.coli at 1 μg/ml and for the rest of the bacterial strains at >32 μg/ml (FIG. 10).

[6] = test system: clinical strains of Streptococcus pneumoniae; experiment: MIC, clinical strains of Streptococcus pneumoniae; type: cell-based; design: unit: µg/mL; conditions: microdilution, Muller Hinton broth-cation adjusted, 0.02% BSA, 0.2% acetic acid
How it was run: as §1

[7] = test system: clinical strains of Proteus mirabilis; experiment: MIC, clinical strains of Proteus mirabilis; type: cell-based; design: unit: µg/mL; conditions: microdilution, Muller Hinton broth-cation adjusted, 0.02% BSA, 0.2% acetic acid
How it was run: as §1

[8] = test system: clinical strains of Serratia marcescens; experiment: MIC, clinical strains of Serratia marcescens; type: cell-based; design: unit: µg/mL; conditions: microdilution, Muller Hinton broth-cation adjusted, 0.02% BSA, 0.2% acetic acid
How it was run: as §1

[9] = test system: clinical strains of C. parapsilosis; experiment: MIC, clinical yeast strains, C. parapsilosis; type: cell-based, Candida parapsilosis; design: unit: μg/ml
How it was run: as §1

[10] = test system: clinical strains of C. quillermondiae; experiment: MIC, clinical yeast strains, C. quillermondiae; type: cell-based; conditions: C. quillermondiae clinical yeast strain 1
How it was run: as §1

[11] = test system: clinical strains of Enterobacter cloacae; experiment: MIC, clinical strains of Enterobacter cloacae; type: cell-based; design: unit: μg/ml; conditions: microdilution, Muller Hinton broth-cation adjusted, 0.02% BSA, 0.2% acetic acid
How it was run: as §1

[12] = test system: clinical strains of Escherichia coli; experiment: MIC, clinical strains of E. coli; type: cell-based; design: unit: μg/ml; conditions: microdilution, Muller Hinton broth-cation adjusted, 0.02% BSA, 0.2% acetic acid
How it was run: as §1

[13] = test system: clinical strains of C. glabrata; experiment: MIC, clinical yeast strains, C. glabrata; type: cell-based, Candida glabrata; design: unit: μg/ml
How it was run: as §1

With `CC[C@@H](C)[C@@H](NC(=O)[C@@H](Cc1c[nH]c2ccccc12)NC(=O)[C@H](N)CCCCN)C(=O)N[C@@H](C(=O)N[C@H](Cc1c[nH]c2ccccc12)C(=O)N[C@H](CCCNC(=N)N)C(=O)N[C@H](Cc1c[nH]c2ccccc12)C(=O)N[C@H](CCCNC(=N)N)C(=O)N[C@H](Cc1ccccc1)C(=O)N[C@H](CCCCN)C(=O)N[C@H](CCCNC(=N)N)C(=O)O)C(C)C` [Chain201D] (H-[dK][dW][dI][dV][dW][dR][dW][dR][dF][dK][dR]-OH) the Minimum inhibitory concentration ([1]; Candida albicans clinical yeast strain 1) was 16, the Minimum inhibitory concentration ([1]; Candida albicans clinical yeast strain 2) was 8 and the Minimum inhibitory concentration ([1]; Candida albicans clinical yeast strain 3) was 8. For the same compound, the Minimum inhibitory concentration ([1]; Candida albicans clinical yeast strain 4) was 16, the Minimum inhibitory concentration ([1]; Candida albicans clinical yeast strain 5) was 8 and the Minimum inhibitory concentration ([2]; Pseudomonas aeruginosa clinical strain 1) was 4. For the same compound, the Minimum inhibitory concentration ([2]; Pseudomonas aeruginosa clinical strain 2) was 4, the Minimum inhibitory concentration ([2]; Pseudomonas aeruginosa clinical strain 3) was 4 and the Minimum inhibitory concentration ([2]; Pseudomonas aeruginosa clinical strain 4) was 2. For the same compound, the Minimum inhibitory concentration ([2]; Pseudomonas aeruginosa clinical strain 5) was 2, the Minimum inhibitory concentration ([3]; Klebsiella pneumoniae clinical strain 1) was 2 and the Minimum inhibitory concentration ([3]; Klebsiella pneumoniae clinical strain 2) was 2. For the same compound, the Minimum inhibitory concentration ([3]; Klebsiella pneumoniae clinical strain 3) was 4, the Minimum inhibitory concentration ([3]; Klebsiella pneumoniae clinical strain 4) was 4 and the Minimum inhibitory concentration ([3]; Klebsiella pneumoniae clinical strain 5) was 2. For the same compound, the Minimum inhibitory concentration ([4]; Staphylococcus aureus clinical strain 1) was 1, the Minimum inhibitory concentration ([4]; Staphylococcus aureus clinical strain 2) was 1 and the Minimum inhibitory concentration ([4]; Staphylococcus aureus clinical strain 3) was 1. It also gave a Minimum inhibitory concentration ([4]; Staphylococcus aureus clinical strain 4) of 1, a Minimum inhibitory concentration ([4]; Staphylococcus aureus clinical strain 5) of 1 and a Minimum inhibitory concentration ([5]; Acinetobacter baumannii clinical strain 1) of 4. The Minimum inhibitory concentration ([5]; Acinetobacter baumannii clinical strain 2) was 4, the Minimum inhibitory concentration ([5]; Acinetobacter baumannii clinical strain 3) was 4 and the Minimum inhibitory concentration ([5]; Acinetobacter baumannii clinical strain 4) was 4. It also gave a Minimum inhibitory concentration ([5]; Acinetobacter baumannii clinical strain 5) of 4, a Minimum inhibitory concentration ([6]; Streptococcus pneumoniae clinical strain 1) of 8 and a Minimum inhibitory concentration ([6]; Streptococcus pneumoniae clinical strain 2) of 4. For the same compound, the Minimum inhibitory concentration ([6]; Streptococcus pneumoniae clinical strain 3) was 2, the Minimum inhibitory concentration ([6]; Streptococcus pneumoniae clinical strain 4) was 4 and the Minimum inhibitory concentration ([6]; Streptococcus pneumoniae clinical strain 5) was 4. The Minimum inhibitory concentration ([7]; Proteus mirabilis clinical strain 1) was greater than 128, the Minimum inhibitory concentration ([7]; Proteus mirabilis clinical strain 2) was 32 and the Minimum inhibitory concentration ([7]; Proteus mirabilis clinical strain 3) was 64. It also gave a Minimum inhibitory concentration ([7]; Proteus mirabilis clinical strain 4) greater than 128, a Minimum inhibitory concentration ([7]; Proteus mirabilis clinical strain 5) greater than 128 and a Minimum inhibitory concentration ([8]; Serratia marcescens clinical strain 1) of 64. For the same compound, the Minimum inhibitory concentration ([8]; Serratia marcescens clinical strain 2) was 64, the Minimum inhibitory concentration ([8]; Serratia marcescens clinical strain 3) was 64 and the Minimum inhibitory concentration ([8]; Serratia marcescens clinical strain 4) was 64. It also gave a Minimum inhibitory concentration ([8]; Serratia marcescens clinical strain 5) of 128, a Minimum inhibitory concentration ([9]; C. parapsilosis clinical yeast strain 1) of 8 and a Minimum inhibitory concentration ([9]; C. parapsilosis clinical yeast strain 2) of 8. It also gave a Minimum inhibitory concentration ([9]; C. parapsilosis clinical yeast strain 3) of 8, a Minimum inhibitory concentration ([9]; C. parapsilosis clinical yeast strain 4) of 8 and a Minimum inhibitory concentration [10] of 8. For the same compound, the Minimum inhibitory concentration ([11]; Enterobacter cloacae clinical strain 1) was 1, the Minimum inhibitory concentration ([11]; Enterobacter cloacae clinical strain 2) was 2 and the Minimum inhibitory concentration ([11]; Enterobacter cloacae clinical strain 3) was 2. For the same compound, the Minimum inhibitory concentration ([11]; Enterobacter cloacae clinical strain 4) was 2, the Minimum inhibitory concentration ([11]; Enterobacter cloacae clinical strain 5) was 1 and the Minimum inhibitory concentration ([12]; Escherichia coli clinical strain 1) was 16. For the same compound, the Minimum inhibitory concentration ([12]; Escherichia coli clinical strain 2) was 1, the Minimum inhibitory concentration ([12]; Escherichia coli clinical strain 3) was 1 and the Minimum inhibitory concentration ([12]; Escherichia coli clinical strain 4) was 1. For the same compound, the Minimum inhibitory concentration ([12]; Escherichia coli clinical strain 5) was 1, the Minimum inhibitory concentration ([13]; C. glabrata clinical yeast strain 1) was 8 and the Minimum inhibitory concentration ([13]; C. glabrata clinical yeast strain 2) was 8. It also gave a Minimum inhibitory concentration ([13]; C. glabrata clinical yeast strain 3) of 8 and a Minimum inhibitory concentration ([13]; C. glabrata clinical yeast strain 4) of 64.
